In US20260265216A1, “NOVEL THIOREDOXIN REDUCTASE INHIBITORS” (GENEXPLAIN GMBH, priority 2021, published 2026):

System: recombinant purified GR
Assay: GR recombinant enzyme assay in vitro
Assay type: biochemical
Procedure: TrxR1 enzyme was recombinantly produced with high Sec contents in a specific Release Factor 1-depleted E. coli strain and purified as previously described (Arnér E S J, Holmgren A, in Current Protocols in Toxicology, Maines M, Costa L, Reed D, Sassa S, Eds. (John Wiley & Sons, Inc., New York, 2000), pp. 7.4.1-7.4.14). TrxR1 and GSR (Sigma) recombinant enzyme assays were performed in a reaction buffer containing 50 mM Tris pH 7.5 with 2 mM EDTA and 0.1 mg/mL bovine serum albumin as described previously (Arnér E S J, Holmgren A, in Current Protocols in Toxicology, Maines M, Costa L, Reed D, Sassa S, Eds. (John Wiley & Sons, Inc., New York, 2000), pp. 7.4.1-7.4.14). Briefly, assays were performed in triplicate using 96-well plates, with activity inferred from absorbance changes using a Spectra Max plate reader. Results of recombinant enzyme assays were normalized to DMSO and to no enzyme controls.
We used recombinant purified TrxR1 and GR in an in vitro assay as described in methods section.

With Cl.N#Cc1c(-c2cccnc2)[n+]([O-])c2cc(F)c(N3CCOCC3)cc2[n+]1[O-] [Compound 1d*HCl, 6-Fluoro-7-(morpholin-4-yl)-3-(pyridin-3-yl)quinoxaline-2-carbonitrile-1,4-dioxide hydrochloride] the “inhibition of GR activity” value was “did not inhibit GR activity”.
